Test results as given in publication PMC8881512 (Nature Communications, 2022).
pIC50: −log10 of the molar value. “And” between values parts separate entries of the source, which are not always exact repeats. Identical values can stand only once.

Tests used:
LATS2 = target: T1, LATS2 (Homo sapiens, UniProt Q9NRM7); assay: In vitro LATS2 kinase inhibition assay (HTRF); type: biochemical; set-up: key to LATS2 kinase activity: % inhibition = (HIGH − ratio)×100/(HIGH − LOW); settings: for LATS2 kinase activity: Fig.5c; for pIC50: in vitro, 6000 μM ATP, n = 2
T1 construct: purchased Signalchem
T1 sequence (Q9NRM7 1-1088): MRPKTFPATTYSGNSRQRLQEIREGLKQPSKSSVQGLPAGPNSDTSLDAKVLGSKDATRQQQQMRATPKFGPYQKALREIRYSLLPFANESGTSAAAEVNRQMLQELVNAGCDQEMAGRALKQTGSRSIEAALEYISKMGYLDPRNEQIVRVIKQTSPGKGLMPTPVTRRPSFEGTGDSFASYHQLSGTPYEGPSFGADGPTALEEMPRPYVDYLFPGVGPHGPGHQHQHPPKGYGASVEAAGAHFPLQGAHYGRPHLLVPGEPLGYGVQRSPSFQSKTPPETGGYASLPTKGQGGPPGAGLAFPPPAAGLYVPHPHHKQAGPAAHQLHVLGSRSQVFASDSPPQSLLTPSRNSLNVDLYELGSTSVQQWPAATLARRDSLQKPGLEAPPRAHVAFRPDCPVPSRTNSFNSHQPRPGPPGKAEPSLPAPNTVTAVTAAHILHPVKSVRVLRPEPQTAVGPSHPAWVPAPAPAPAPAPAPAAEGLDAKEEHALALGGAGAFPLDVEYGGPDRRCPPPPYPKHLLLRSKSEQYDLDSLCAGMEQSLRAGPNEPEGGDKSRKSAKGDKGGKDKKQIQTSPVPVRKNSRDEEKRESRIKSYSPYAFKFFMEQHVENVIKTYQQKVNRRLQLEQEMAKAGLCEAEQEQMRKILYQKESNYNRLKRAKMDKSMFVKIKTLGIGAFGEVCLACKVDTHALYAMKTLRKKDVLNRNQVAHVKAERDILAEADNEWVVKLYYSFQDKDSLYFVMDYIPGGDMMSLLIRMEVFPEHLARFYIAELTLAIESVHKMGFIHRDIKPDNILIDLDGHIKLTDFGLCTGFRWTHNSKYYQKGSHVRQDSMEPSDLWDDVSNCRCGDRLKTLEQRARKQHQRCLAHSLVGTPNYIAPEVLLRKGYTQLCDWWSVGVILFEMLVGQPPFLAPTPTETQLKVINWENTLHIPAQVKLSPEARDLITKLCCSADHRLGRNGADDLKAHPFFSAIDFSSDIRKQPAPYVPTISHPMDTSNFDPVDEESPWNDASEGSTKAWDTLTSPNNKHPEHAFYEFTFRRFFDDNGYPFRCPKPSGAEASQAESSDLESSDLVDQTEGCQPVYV
Experimental: The kinase activity of LATS1 and LATS2 were performed based on an adapted and optimised HTRF Kinase Binding assay (Cisbio). Briefly, the concentration-response curves with compound concentration range of 10,000 to 0.17 nM with 3-fold serial dilution and 1X Kinase enzymatic buffer (Cisbio), 1.2 nM LATS1 or LATS2 kinases (Signalchem), 0.5 μM biotinylation labelled YAP peptide (Vivace) were dispensed into 384-well microplates by automated digital dispenser Echo/POD with the final DMSO concentration in all wells at 0.5%. To start the enzymatic reaction, 3000 μM ATP (for LATS1) or 6000 μM ATP (for LATS2) were added using multidrop in a 10-μl volume and incubated for 90 min at 30 °C. Subsequently, 10 μl of HTRF KinEASE detection buffer (Cisbio) containing 31.25 nM acceptor conjugate (streptavidin-XL665) and 1:100 donor conjugate (TK antibody labelled with Eu^3+-Cryptate) mixture were added and incubated at RT for 60 min, and the fluorescence emission at two different wavelengths was measured (615 nm and 665 nm) on Envision. […] The inhibition was calculated by the formula, inhibition % = (HIGH − ratio) × 100/ (High − LOW). HIGH control stands for 0.5% DMSO with kinase and LOW control stands for 0.5% DMSO without kinase. The data was analysed by Xlfit software. The IC50 values were determined by fitting to a standard four-parameter logistic using GraphPad Prism.

[1] = system: YAP/TAZ target, ESR1 and ERα target gene mRNA in BTO-02; assay: qPCR gene expression in breast tumour organoids BTO-02; type: cell-based, human; settings: BTO-02, 2 μM for 2 days; for ANKRD1 mRNA (qPCR, relative to DMSO) / CTGF mRNA (qPCR, relative to DMSO) / CYR61 mRNA (qPCR, relative to DMSO) / VGLL3 mRNA (qPCR, relative to DMSO): Fig.5g; for ESR1 mRNA (qPCR, relative to DMSO) / GREB1 mRNA (qPCR, relative to DMSO) / TFF1 mRNA (qPCR, relative to DMSO): Fig.5h;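 as to all read-outs here: relative mRNA abundance computed by the ΔCt approach from SYBR-based real-time qPCR, with GAPDH as internal housekeeping reference for normalisation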
T47D cells = assay: Colony-formation assay, T47D (wild-type and ESR1 knock-in); type: cell-based; settings: 1 μM 4OHT, 0.2 μM Fulvestrant, 2 μM VT02956, 2 μM VT02484, 14 days, Fig.6h
Experimental: For colony formation, cells were plated into 12-well plate with a constant density at the start date of treatment in triplicate with the indicated compounds and further cultured for 10 days (MCF-7) or 14 days (T47D). The drugs were refreshed every 2–4 days. The colonies were then fixed with 4% paraformaldehyde for 15 min and stained with 0.1% crystal violet in 20% methanol solution for quantification.

[2] = system: VGLL3, ESR1, YAP/TAZ target and ERα target gene mRNA in MCF-7 cells; assay: qPCR gene expression in MCF-7 cells;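 as to all read-outs here: SYBR Green real-time PCR, mRNA abundance computed by the ΔCt approach with GAPDH transcript as the internal normalisation control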; settings: MCF-7, 2 µM for 2 days; for ANKRD1 mRNA (qPCR, relative to DMSO) / LATS2 mRNA (qPCR, relative to DMSO) / VGLL3 mRNA (qPCR, relative to DMSO): sheet Fig.s7b (Supplementary Fig. 7c); for ESR1 mRNA (qPCR, relative to DMSO) / GREB1 mRNA (qPCR, relative to DMSO) / TFF1 mRNA (qPCR, relative to DMSO): sheet Fig.s7d (Supplementary Fig. 7e)

LATS2 kinase activity (LATS2; Conc. 0.00016935 (µM)) | LATS2 kinase activity (LATS2; Conc. 0.00050805 (µM)) | LATS2 kinase activity (LATS2; Conc. 0.00152416 (µM)) | pIC50 (LATS2) | SMILES | ANKRD1 mRNA (qPCR, relative to DMSO) [1] | CTGF mRNA (qPCR, relative to DMSO) [1] | CYR61 mRNA (qPCR, relative to DMSO) [1] | VGLL3 mRNA (qPCR, relative to DMSO) [1] | ESR1 mRNA (qPCR, relative to DMSO) [1] | GREB1 mRNA (qPCR, relative to DMSO) [1] | TFF1 mRNA (qPCR, relative to DMSO) [1] | Relative colony formation (T47D cells; T47D ERa Y537S knock-in) | Relative colony formation (T47D cells; T47D WT) | ANKRD1 mRNA (qPCR, relative to DMSO) [2] | LATS2 mRNA (qPCR, relative to DMSO) [2] | VGLL3 mRNA (qPCR, relative to DMSO) [2] | ESR1 mRNA (qPCR, relative to DMSO) [2] | GREB1 mRNA (qPCR, relative to DMSO) [2] | TFF1 mRNA (qPCR, relative to DMSO) [2] | also measured
96.8406 and 89.7881 | 86.8123 and 94.4369 | 95.4849 and 93.7686 | < 5.00 | CCN(CC)c1nc(-c2ccncc2)nc2c(-c3ccc(Cl)cc3)cccc12 [VT02484] | 1.2497 and 1.0358 and 0.9991 | 1.029 and 0.9638 and 0.9395 | 1.1798 and 0.914 and 0.9308 | 1.193 and 1.051 and 1.05 | 1.0519 and 1.0384 and 1.0263 | 1.1915 and 1.2181 and 1.0643 | 1.1521 and 1.0774 and 1.1271 | 0.96 and 0.91 and 1.03 | 1.12 and 0.89 and 0.98 | 0.9375 and 1.0569 and 0.9783 | 1.073 and 0.8452 and 1.234 | 1.127 and 1.023 and 0.9343 | 0.9424 and 1.008 and 0.8622 | 1.01 and 0.9864 and 0.9917 | 1.063 and 1.169 and 0.8376 | LATS2 kinase activity (LATS2; Conc. 0.00457247 (µM)): 92.5091 and 95.5041; LATS2 kinase activity (LATS2; Conc. 0.0137174 (µM)): 94.4128 and 88.6006; LATS2 kinase activity (LATS2; Conc. 0.0411523 (µM)): 86.8411 and 90.365; LATS2 kinase activity (LATS2; Conc. 0.123457 (µM)): 93.2446 and 92.7206; LATS2 kinase activity (LATS2; Conc. 0.37037 (µM)): 94.4513 and 95.1243; LATS2 kinase activity (LATS2; Conc. 1.11111 (µM)): 88.3362 and 87.5718; LATS2 kinase activity (LATS2; Conc. 3.33333 (µM)): 84.322 and 85.4373; LATS2 kinase activity (LATS2; Conc. 10 (µM)): 81.6154 and 76.4186
60.6319 and 66.1157 | 35.6649 and 36.636 | 7.393 and 7.887 | 9.28 | NCC1CCN(c2nc(-c3ccncc3)nc3c(C#CCO)cccc23)CC1 [VT02956] | 120.896 and 131.016 and 139.426 | 10.8797 and 10.8657 and 10.8616 | 13.1424 and 13.7264 and 12.9668 | 31.437 and 32.235 and 31.533 | 0.1649 and 0.1855 and 0.1729 | 0.3079 and 0.3261 and 0.3014 | 0.0863 and 0.0862 and 0.094 | 0.41 and 0.42 and 0.48 | 0.39 and 0.48 and 0.51 | 39.7272 and 41.5085 and 42.3168 | 3.381 and 2.554 and 3.922 | 57.2973 and 54.8732 and 38.032 | 0.1783 and 0.1761 and 0.1829 | 0.3188 and 0.332 and 0.2804 | 0.2697 and 0.3023 and 0.214 | 
